The source of these data is patent US20260200911A1, “NOVEL COMPOUNDS” (Neurosterix Pharma Sarl., priority 2022, published 2026).

The structures appear in SMILES notation. Bounds are passed on as bounds.

T1 sequence (Q14831 35-922 isoform Q14831-2 limits assumed): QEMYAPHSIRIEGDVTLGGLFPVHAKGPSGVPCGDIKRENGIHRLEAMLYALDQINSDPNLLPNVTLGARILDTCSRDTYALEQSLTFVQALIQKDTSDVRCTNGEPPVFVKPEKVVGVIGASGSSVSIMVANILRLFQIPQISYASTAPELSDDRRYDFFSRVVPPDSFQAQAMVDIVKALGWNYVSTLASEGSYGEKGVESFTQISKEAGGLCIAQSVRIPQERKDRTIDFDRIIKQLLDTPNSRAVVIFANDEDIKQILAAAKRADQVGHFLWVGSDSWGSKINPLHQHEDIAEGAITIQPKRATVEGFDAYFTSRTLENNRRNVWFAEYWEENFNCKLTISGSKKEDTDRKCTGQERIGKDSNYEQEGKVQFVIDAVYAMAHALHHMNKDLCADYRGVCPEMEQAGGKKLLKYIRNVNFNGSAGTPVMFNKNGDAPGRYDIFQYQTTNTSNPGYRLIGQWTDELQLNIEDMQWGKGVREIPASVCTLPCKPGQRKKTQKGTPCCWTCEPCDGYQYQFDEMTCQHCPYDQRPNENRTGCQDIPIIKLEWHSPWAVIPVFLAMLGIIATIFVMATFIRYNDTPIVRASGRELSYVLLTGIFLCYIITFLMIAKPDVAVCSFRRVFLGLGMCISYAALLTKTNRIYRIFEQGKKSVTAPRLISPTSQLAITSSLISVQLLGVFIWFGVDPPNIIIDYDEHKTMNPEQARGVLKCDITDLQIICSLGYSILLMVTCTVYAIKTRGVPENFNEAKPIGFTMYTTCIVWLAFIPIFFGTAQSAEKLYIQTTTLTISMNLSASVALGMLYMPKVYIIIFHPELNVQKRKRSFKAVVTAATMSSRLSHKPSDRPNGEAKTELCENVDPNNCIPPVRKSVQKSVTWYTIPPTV

The assay concerns the target T1, human mGlu7 (Homo sapiens, UniProt Q14831).
T1 construct: expressed in transfected cells
The experiment in a line: Fluorescent cell based Ca2+ mobilization assay (FLIPR) on HEK-293 cells expressing human mGlu7. The conditions noted are these: HEK-293 cells expressing hmGlu7; inhibition of EC80 L-AP4 response; mean of at least three independent experiments in duplicate; read-out: Ca^2+ Flux (mean IC50). From the text: mGlu7 Assay on HEK-Expressing Human mGlu7
The cDNA encoding the human metabotropic glutamate 7 receptor (hmGlu7), (accession number NM_181874.2, NCBI Nucleotide database browser), was subcloned into an expression vector containing also the hygromycin resistance gene. In parallel, the cDNA encoding a G protein allowing redirection of the activation signal to intracellular calcium flux was subcloned into a different expression vector containing also the Puromycin resistance gene. Transfection of both these vectors into HEK293 cells with PolyFect reagent (Qiagen) according to supplier's protocol, and hygromycin and puromycin treatment allowed selection of antibiotic resistant cells which had integrated stably one or more copies of the plasmids. Positive cellular clones expressing hmGlu7 were identified in a functional assay measuring changes in calcium fluxes in response to glutamate and L-AP4 or known mGlu7 orthosteric antagonists.
HEK-293 cells expressing hmGlu7 were maintained in media containing DMEM, Fetal Bovine Serum (10%), Glutamax™ (2 mM), penicillin (100 units/mL), streptomycin (100 μg/mL), geneticin (100 μg/mL) and hygromycin-B (40 μg/mL) and puromycin (1 μg/mL) at 37° C. with 5% CO2 in a humidified atmosphere.
Human mGlu7 HEK-293 cells were plated out 24 hours prior to a fluorescent cell-based calcium mobilization assay using FLIPR^384 assay (Molecular Device, Sunnyvale, CA, USA) in black-walled, clear-bottomed, poly-L-ornithine-coated 384-well plates at a density of 25,000 cells/well in a glutamine/glutamate free DMEM medium containing fetal bovine serum (10%), penicillin (100 units/mL), streptomycin (100 μg/mL) and doxycyline (1 μg/ml) at 37° C. with 5% CO2 in a humidified atmosphere.
On the day of the assay, the medium was aspirated and the cells were loaded with a 3 μM solution of Fluo4-AM (LuBioScience, Lucerne, Switzerland) in 0.03% pluronic acid. After 1 hour at 37° C./5% CO2, the non incorporated dye was removed by washing cell plate with the assay buffer. All assays were performed in a pH 7.4 buffered-solution containing 20 mM HEPES, 143 mM NaCl, 6 mM KCl, 1 mM MgSO4, 1 mM CaCl2, 0.125 mM sulfinpyrazone and 0.1% glucose.
After 10 s of basal fluorescence recording, various concentrations of the compounds of the invention were added to the cells. Changes in fluorescence levels were first monitored for 180 s in order to detect any agonist activity of the compounds. Then the cells were stimulated by an EC80 L-AP4 concentration for an additional 110 s in order to measure inhibiting activities of the compounds of the invention. EC80 L-AP4 concentration is the concentration giving 80% of the maximal glutamate response.
The concentration-response curves of L-AP4 or representative compounds of the present invention were generated using the Prism GraphPad software (Graph Pad Inc, San Diego, USA). The curves were fitted to a four-parameter logistic equation:
(Y=Bottom+(Top−Bottom)/(1+10^((Log IC50−X)*Hill Slope)
allowing determination of IC50 values.
The Table 3 below represents the mean IC50 obtained from at least three independent experiments of selected molecules performed in duplicate.
With `Cc1ccc(C2CCc3nn(-c4ccccn4)c(=O)n3C2)c(C)c1` (single isomer, unassigned; (+)) [Compound 1-18, (+)6-(2,4-dimethylphenyl)-2-(pyridin-2-yl)-5,6,7,8-tetrahydro-[1,2,4]triazolo[4,3-a]pyridin-3(2H)-one], the IC50 is less than 100 nM.
With `Cc1ccc(C2CCc3nn(-c4ccccn4)c(=O)n3C2)c(C)c1` (single isomer, unassigned; (-)) [Compound 1-17, (−)6-(2,4-dimethylphenyl)-2-(pyridin-2-yl)-5,6,7,8-tetrahydro-[1,2,4]triazolo[4,3-a]pyridin-3(2H)-one], the IC50 fell in the range of 1000 to 10000 nM.
Turning to `Cc1ccc(-c2ccc3nn(-c4ccccn4)c(=O)n3c2)c(C)c1` [Compound 1-1, 6-(2,4-dimethylphenyl)-2-(pyridin-2-yl)-[1,2,4]triazolo[4,3-a]pyridin-3(2H)-one], the concentration for half-maximal inhibition (IC50) was less than 100 nM.
With `Cc1ccc(-c2ccc3nn(-c4ncccn4)c(=O)n3c2)c(C)c1` [Compound 1-2, 6-(2,4-dimethylphenyl)-2-(pyrimidin-2-yl)-[1,2,4]triazolo[4,3-a]pyridin-3(2H)-one], the IC50 lay in the range of 100 to 1000 nM.
With `Cc1ccc(C2CCc3nn(-c4ccccn4)c(=O)n3C2)c(C)c1` (stereo not shown) [Compound 1-3, 6-(2,4-dimethylphenyl)-2-(pyridin-2-yl)-5,6,7,8-tetrahydro-[1,2,4]triazolo[4,3-a]pyridin-3(2H)-one], the IC50 was less than 100 nM.
Regarding `O=c1n(-c2ccccn2)nc2ccc(-c3cccc(N4CCC4)c3)cn12` [Compound 1-4, 6-(3-(azetidin-1-yl)phenyl)-2-(pyridin-2-yl)-[1,2,4]triazolo[4,3-a]pyridin-3(2H)-one], the IC50 is 100 to 1000 nM.
With `COc1cccc(-c2ccc3nn(-c4ccccn4)c(=O)n3c2)c1` [Compound 1-5, 6-(3-methoxyphenyl)-2-(pyridin-2-yl)-[1,2,4]triazolo[4,3-a]pyridin-3(2H)-one], the IC50 lay in the range of 100 to 1000 nM.
`O=c1n(-c2ncccn2)nc2ccc(-c3cccc(N4CCC4)c3)cn12` [Compound 1-6, 6-(3-(azetidin-1-yl)phenyl)-2-(pyrimidin-2-yl)-[1,2,4]triazolo[4,3-a]pyridin-3(2H)-one]: the IC50 fell in the range of 100 to 1000 nM.
Consider `COc1cccc(-c2ccc3nn(-c4ncccn4)c(=O)n3c2)c1` [Compound 1-7, 6-(3-methoxyphenyl)-2-(pyrimidin-2-yl)-[1,2,4]triazolo[4,3-a]pyridin-3(2H)-one], for which the IC50 lay in the range of 1000 to 10000 nM.
Turning to `COc1cccc(C2CCc3nn(-c4ccccn4)c(=O)n3C2)c1` (stereo not shown) [Compound 1-8, 6-(3-methoxyphenyl)-2-(pyridin-2-yl)-5,6,7,8-tetrahydro-[1,2,4]triazolo[4,3-a]pyridin-3(2H)-one], the IC50 lay within 1000 to 10000 nM.
As to `COc1cccc(-c2ccc3nn(-c4ccccn4)c(=O)n3c2)c1C` [Compound 1-9, 6-(3-methoxy-2-methylphenyl)-2-(pyridin-2-yl)-[1,2,4]triazolo[4,3-a]pyridin-3(2H)-one], the IC50 was less than 100 nM.
For the compound `COc1cccc(C2CCc3nn(-c4ccccn4)c(=O)n3C2)c1C` (stereo not shown) [Compound 1-10, 6-(3-methoxy-2-methylphenyl)-2-(pyridin-2-yl)-5,6,7,8-tetrahydro-[1,2,4]triazolo[4,3-a]pyridin-3(2H)-one], the concentration for half-maximal inhibition (IC50) was in the range of 100 to 1000 nM.
Regarding `COc1cccc(-c2ccc3nn(-c4ncccn4)c(=O)n3c2)c1C` [Compound 1-11, 6-(3-methoxy-2-methylphenyl)-2-(pyrimidin-2-yl)-[1,2,4]triazolo[4,3-a]pyridin-3(2H)-one], the 50% inhibitory concentration (IC50) lay in the range of 100 to 1000 nM.
`O=c1n(-c2ncccn2)nc2ccc(-c3cccc(OC4CC4)c3)cn12` [Compound 1-12, 6-(3-cyclopropoxyphenyl)-2-(pyrimidin-2-yl)-[1,2,4]triazolo[4,3-a]pyridin-3(2H)-one]: the IC50 is 100 to 1000 nM.
As for `O=c1n(-c2ccccn2)nc2ccc(-c3cccc(OC4CC4)c3)cn12` [Compound 1-13, 6-(3-cyclopropoxyphenyl)-2-(pyridin-2-yl)-[1,2,4]triazolo[4,3-a]pyridin-3(2H)-one], the figure is 100 to 1000 nM; as for `O=c1n(-c2ccccn2)nc2n1CC(c1cccc(OC3CC3)c1)CC2` (stereo not shown) [Compound 1-14, 6-(3-cyclopropoxyphenyl)-2-(pyridin-2-yl)-5,6,7,8-tetrahydro-[1,2,4]triazolo[4,3-a]pyridin-3(2H)-one], 100 to 1000 nM.
Turning to `COc1ccc(-c2ccc3nn(-c4ccccn4)c(=O)n3c2)cc1` [Compound 1-15, 6-(4-methoxyphenyl)-2-(pyridin-2-yl)-[1,2,4]triazolo[4,3-a]pyridin-3(2H)-one], the IC50 lay in the range of 1000 to 10000 nM.
Take `COc1ccc(C2CCc3nn(-c4ccccn4)c(=O)n3C2)cc1` (stereo not shown) [Compound 1-16, 6-(4-methoxyphenyl)-2-(pyridin-2-yl)-5,6,7,8-tetrahydro-[1,2,4]triazolo[4,3-a]pyridin-3(2H)-one]: the IC50 fell in the range of 1000 to 10000 nM.
In the case of `COc1ccccc1-c1ccc2nn(-c3ccccn3)c(=O)n2c1` [Compound 1-19, 6-(2-methoxyphenyl)-2-(pyridin-2-yl)-[1,2,4]triazolo[4,3-a]pyridin-3(2H)-one], the IC50 fell in the range of 1000 to 10000 nM.
For `COc1ccc(-c2ccc3nn(-c4ccccn4)c(=O)n3c2)c(C)c1` [Compound 1-20, 6-(4-methoxy-2-methylphenyl)-2-(pyridin-2-yl)-[1,2,4]triazolo[4,3-a]pyridin-3(2H)-one], the IC50 is 100 to 1000 nM.
On to `COc1ccc(-c2ccc3nn(-c4ncccn4)c(=O)n3c2)c(C)c1` [Compound 1-21, 6-(4-methoxy-2-methylphenyl)-2-(pyrimidin-2-yl)-[1,2,4]triazolo[4,3-a]pyridin-3(2H)-one], for which the IC50 was in the range of 1000 to 10000 nM.
Turning to `COc1ccc(C2CCc3nn(-c4ccccn4)c(=O)n3C2)c(C)c1` (stereo not shown) [Compound 1-22, 6-(4-methoxy-2-methylphenyl)-2-(pyridin-2-yl)-5,6,7,8-tetrahydro-[1,2,4]triazolo[4,3-a]pyridin-3(2H)-one], the IC50 is 100 to 1000 nM.
